This is an account of results in paper PMC7587356, “High-Throughput Screening for Inhibitors of the SARS-CoV-2 Protease Using a FRET-Biosensor” (Molecules, 2020).

The structures appear in SMILES notation. Where a name gives a salt, the structure may show the parent alone. Read-outs that look alike come from different tables or passages of the source.

For the test, the target named is SARS-CoV-2 3CLpro (Severe acute respiratory syndrome coronavirus 2, UniProt P0DTD1). As to the kind of experiment: biochemical. Further details: Replicate_1 / Replicate_2 / mean / mean (LOPAC_screen_w_protease): unit not given here. The conditions noted are these: for inhibition at 5 µM: 4 h. It is filed as biochemical.
The mark [1] stands for this setting: sheet LOPAC_screen_w_protease, primary screen with protease, 5 µM, mean of two replicates, read-out: mean.
The mark [2] stands for this setting: sheet LOPAC_screen_w_protease, primary screen with protease, 5 µM, replicate 1, read-out: Replicate_1.
The mark [3] stands for this setting: sheet LOPAC_screen_w_protease, primary screen with protease, 5 µM, replicate 2, read-out: Replicate_2.
[4] abbreviates: LOPAC1280 primary screen with protease, 5 µM compound, replicate 1, read-out: Replicate_1 (LOPAC_screen_w_protease).
Where [5] appears, read: LOPAC1280 primary screen with protease, 5 µM compound, replicate 2, read-out: Replicate_2 (LOPAC_screen_w_protease).
[6] abbreviates: LOPAC1280 primary screen with protease, 5 µM compound, mean of two replicates.
Setting [7] is: sheet LOPAC_screen_w_protease, primary screen with protease, mean of two replicates.
Setting [8] is: sheet LOPAC_screen_w_protease, primary screen with protease, replicate 1.
[9] abbreviates: sheet LOPAC_screen_w_protease, primary screen with protease, replicate 2.
The mark [10] stands for this setting: sheet LOPAC_screen_w_protease, primary screen with protease, 5 µM, mean of two replicates.
Where [11] appears, read: sheet LOPAC_screen_w_protease, primary screen with protease, 5 µM, replicate 1.
Where [12] appears, read: sheet LOPAC_screen_w_protease, primary screen with protease, 5 µM, replicate 2.
Setting [13] is: sheet LOPAC_screen_w_protease, primary screen with protease, mean of two replicates, read-out: mean.
Where [14] appears, read: sheet LOPAC_screen_w_protease, primary screen with protease, replicate 1, read-out: Replicate_1.
Setting [15] is: sheet LOPAC_screen_w_protease, primary screen with protease, replicate 2, read-out: Replicate_2.
The mark [16] stands for this setting: LOPAC1280 primary screen with protease, 5 µM compound, replicate 1.
Where [17] appears, read: LOPAC1280 primary screen with protease, 5 µM compound, replicate 2.
The mark [18] stands for this setting: sheet LOPAC_screen_w_protease, LOPAC1280 primary screen with protease, 5 µM compound, mean of the two replicates, read-out: mean.
The mark [19] stands for this setting: sheet LOPAC_screen_w_protease, LOPAC1280 primary screen with protease, 5 µM compound, replicate 1, read-out: Replicate_1.
The mark [20] stands for this setting: sheet LOPAC_screen_w_protease, LOPAC1280 primary screen with protease, 5 µM compound, replicate 2, read-out: Replicate_2.
The mark [21] stands for this setting: sheet LOPAC_screen_w_protease, primary screen of LOPAC1280 at 5 µM with protease, mean of the two replicates.
Where [22] appears, read: sheet LOPAC_screen_w_protease, primary screen of LOPAC1280 at 5 µM with protease, replicate 1.
Where [23] appears, read: sheet LOPAC_screen_w_protease, primary screen of LOPAC1280 at 5 µM with protease, replicate 2.
Setting [24] is: LOPAC1280 primary screen with protease, 5 µM compound, mean of the two replicates.
[25] abbreviates: sheet LOPAC_screen_w_protease, LOPAC1280 at 5 µM, mean of two replicates, read-out: mean.
Setting [26] is: sheet LOPAC_screen_w_protease, LOPAC1280 at 5 µM, replicate 1, read-out: Replicate_1.
[27] abbreviates: sheet LOPAC_screen_w_protease, LOPAC1280 at 5 µM, replicate 2, read-out: Replicate_2.

In the case of `Cc1ccc(N(CC2=NCCN2)c2cccc(O)c2)cc1` [Phentolamine mesylate], the inhibition at 5 µM under setting [1] was -0.0499%, the inhibition at 5 µM under setting [2] was -0.162% and the inhibition at 5 µM under setting [3] is 0.062%.

On to `CN(C)CCC=C1c2ccccc2COc2ccccc21` [Doxepin hydrochloride], for which the inhibition at 5 µM runs as follows: under setting [4], 1.2%; under setting [5], 1.88%. Moreover, the “mean (LOPAC_screen_w_protease)” value under setting [6] turned out to be 1.543.

Turning to `Nc1ncn([C@@H]2O[C@H](CO)[C@@H](O)[C@H]2O)c(=O)n1` [5-azacytidine], for the setting “sheet LOPAC_screen_w_protease, primary screen at 5 µM, mean of two replicates”, the “mean (LOPAC screen with protease)” value worked out at 9.256. Further, where the note is “sheet LOPAC_screen_w_protease, primary screen at 5 µM, replicate 1”, the “Replicate_1 (LOPAC screen with protease)” value was 17.5612. Besides, under “sheet LOPAC_screen_w_protease, primary screen at 5 µM, replicate 2”, the “Replicate_2 (LOPAC screen with protease)” value is 0.9518.

For the compound `Br.Cc1o[nH]c(=O)c1CC(N)C(=O)O` (racemic) [(±)-AMPA hydrobromide], the mean under setting [7] was 2.246. Besides, the Replicate_1 under setting [8] came to 3.765. This compound came in with a Replicate_2 under setting [9] of 0.7264.

As for `CCc1ccccc1OC[C@@H](O)CN[C@H]1CCCc2ccccc21.O=C(O)C(=O)O` [SR 59230A oxalate], the mean under setting [10] is on record as -0.0002221. Also, the Replicate_1 under setting [11] is reported as 1.088. Further, the Replicate_2 under setting [12] was -1.089.

Regarding `Brc1c(NC2=NCCN2)ccc2nccnc12` [UK 14,304], the “Replicate_1 (LOPAC_screen_w_protease)” value stood at 1.98, the “Replicate_2 (LOPAC_screen_w_protease)” value amounted to 2.1604 and the “mean (LOPAC_screen_w_protease)” value is given as 2.07.

`Cl.Fc1ccc(CN(C2=NCCN2)c2c(Cl)cccc2Cl)cc1` [IMID-4F hydrochloride] came in with a mean under setting [10] of -0.6347. For the same compound, the Replicate_1 under setting [11] was -0.8698. Besides, the Replicate_2 under setting [12] is listed as -0.3997.

Consider `CCCCc1ccc(C(=O)O)nc1` [Fusaric acid], for which the inhibition at 5 µM runs as follows: under setting [13], 2.51%; under setting [14], 3.23%; under setting [15], 1.8%.

For `CNCC(O)c1ccc(O)cc1` (racemic) [(±)-Synephrine], under setting [6], the “mean (LOPAC_screen_w_protease)” value is 1.431. Moreover, the “Replicate_1 (LOPAC_screen_w_protease)” value under setting [16] was found to be 1.098. Also, the “Replicate_2 (LOPAC_screen_w_protease)” value under setting [17] turned out to be 1.765.

With `N#C/C(=C\c1ccc(O)c(O)c1)C(=O)c1ccc(O)c(O)c1` [Tyrphostin AG 538], the “mean (LOPAC_screen_w_protease)” value under setting [6] was determined as 1.741. Also, under setting [16], the “Replicate_1 (LOPAC_screen_w_protease)” value is recorded as 1.926. Under setting [17], the “Replicate_2 (LOPAC_screen_w_protease)” value is 1.555.

`C1CNCCN1.COc1cc(C(O)CO)ccc1O.COc1cc(C(O)CO)ccc1O` (stereo not drawn) [MHPG piperazine] showed a Replicate_1 of 4.5396, a Replicate_2 of 3.9909 and a mean of 4.265.

The compound `Cc1cc(NC(=O)Nc2ccc3c(ccn3C)c2)sn1` [SB 204741] gave a mean under setting [10] of 0.4215. Besides, the Replicate_1 under setting [11] is given as 0.3793. This compound also displayed a Replicate_2 under setting [12] of 0.4638.

`CCCN1CCC[C@H](c2cccc(O)c2)C1.Cl` [R(+)-3PPP hydrochloride]: under “sheet LOPAC_screen_w_protease, LOPAC1280 at 5 µM, mean of two replicates”, the mean stood at 0.9121. In addition, the Replicate_1 (sheet LOPAC_screen_w_protease, LOPAC1280 at 5 µM, replicate 1) came to 1.657. Also, the Replicate_2 (sheet LOPAC_screen_w_protease, LOPAC1280 at 5 µM, replicate 2) is recorded as 0.167.

Regarding `NC(=O)c1ncn([C@@H]2O[C@H](CO)[C@@H](O)[C@H]2O)c1O` [Mizoribine], the inhibition at 5 µM is, setting by setting: under setting [18], 4.8%; under setting [19], 4.56%; under setting [20], 5.05%.

`C[C@H]1C[C@H]2[C@@H]3CCC4=CC(=O)C=C[C@]4(C)[C@@]3(Cl)[C@@H](O)C[C@]2(C)[C@@]1(O)C(=O)CO` [Beclomethasone] had a mean under setting [10] of -0.1197. For the same compound, the Replicate_1 under setting [11] is given as -0.1957. The compound also yielded a Replicate_2 under setting [12] of -0.04382.

Take `CC(C)NP(=O)(NC(C)C)OP(=O)(NC(C)C)NC(C)C` [Tetraisopropyl pyrophosphoramide]: the inhibition at 5 µM was 1.18% (read-out: Replicate_1), -0.275% (read-out: Replicate_2) and 0.452% (read-out: mean).

`CCCCCCCCCCCCCCCCCCOCC(COP(=O)([O-])OCC[N+](C)(C)C)OC` (stereo not drawn) [ET-18-OCH3]: under setting [6], the “mean (LOPAC_screen_w_protease)” value is listed as 1.443. The “Replicate_1 (LOPAC_screen_w_protease)” value under setting [16] was 1.735. Moreover, the “Replicate_2 (LOPAC_screen_w_protease)” value under setting [17] is listed as 1.151.

In the case of `CC(COc1ccccc1)N(CCCl)Cc1ccccc1` (stereo not drawn) [Phenoxybenzamine hydrochloride], the inhibition at 5 µM is 4.33% under setting [18], 4.24% under setting [19] and 4.41% under setting [20].

In the case of `S=C(NC1CCCCC1)N1CCC(c2cnc[nH]2)CC1` [Thioperamide maleate], the inhibition at 5 µM under setting [1] was -0.179%, the inhibition at 5 µM under setting [2] is -0.586% and the inhibition at 5 µM under setting [3] was determined as 0.227%.

Consider `CO/N=C(\C(=O)N[C@@H]1C(=O)N2C(C(=O)O)=C(COC(C)=O)CS[C@H]12)c1csc(N)n1` [Cefotaxime sodium], for which the inhibition at 5 µM by setting is: under setting [13], 2.42%; under setting [14], 1.54%; under setting [15], 3.3%.

On to `COC(=O)c1cc2c(cn1)[nH]c1ccccc12` [Methyl beta-carboline-3-carboxylate], for which the mean under setting [21] is recorded as 3.265. This compound also came in with a Replicate_1 under setting [22] of 4.868. The Replicate_2 under setting [23] worked out at 1.662.

As for `Nc1nc(Cl)nc2c1ncn2[C@@H]1O[C@H](COP(=O)(O)OP(=O)(O)OP(=O)(O)O)C(O)C1O` (stereo in doubt), under setting [6], the “mean (LOPAC_screen_w_protease)” value worked out at 1.575. Moreover, the “Replicate_1 (LOPAC_screen_w_protease)” value under setting [16] turned out to be 3.171. For the same compound, the “Replicate_2 (LOPAC_screen_w_protease)” value under setting [17] was -0.0216.

With `Cn1cc(C2=C(c3ccc(Cl)cc3Cl)C(=O)NC2=O)c2ccccc21` [SB 216763], the inhibition at 5 µM runs as follows: (sheet LOPAC_screen_w_protease, primary screen at 5 µM, mean of two replicates, read-out: mean (LOPAC screen with protease)) 6.45%; (sheet LOPAC_screen_w_protease, primary screen at 5 µM, replicate 1, read-out: Replicate_1 (LOPAC screen with protease)) 5.91%; (sheet LOPAC_screen_w_protease, primary screen at 5 µM, replicate 2, read-out: Replicate_2 (LOPAC screen with protease)) 6.98%.

Turning to `C[N+](C)(C)CCOP(=O)([O-])OP(=O)([O-])OC[C@H]1O[C@@H](n2ccc(N)nc2=O)[C@H](O)[C@@H]1O.[Na+]` [Citicoline sodium], under setting [24], the “mean (LOPAC_screen_w_protease)” value is 2.039. Further, the “Replicate_1 (LOPAC_screen_w_protease)” value under setting [16] amounted to 0.6867. The “Replicate_2 (LOPAC_screen_w_protease)” value under setting [17] is reported as 3.392.

As to `CC(=N)NCCC[C@H](N)C(=O)O.Cl`, the mean (sheet LOPAC_screen_w_protease, primary screen with protease, compound at 5 µM, mean of two replicates) turned out to be 2.835. Moreover, the Replicate_1 (sheet LOPAC_screen_w_protease, primary screen with protease, compound at 5 µM, replicate 1) is 2.586. Where the note is “sheet LOPAC_screen_w_protease, primary screen with protease, compound at 5 µM, replicate 2”, this compound came in with a Replicate_2 of 3.084.

For `Cc1nccc2c1[nH]c1ccccc12` [Harmane], the inhibition at 5 µM is, setting by setting: under setting [25], 1.1%; under setting [26], 2.71%; under setting [27], -0.5%.

`O=C(O)C1CCNCC1` [Isonipecotic acid]: the inhibition at 5 µM by setting is: under setting [4], 4.55%; under setting [5], -0.611%. Further, the “mean (LOPAC_screen_w_protease)” value under setting [24] worked out at 1.97.

Under setting [21], `CCCN1CCOC2c3cc(O)ccc3OCC21.Cl` (racemic) [(±)-PD 128,907 hydrochloride] came in with a mean of 3.436. The Replicate_1 under setting [22] was found to be 4.647. Under setting [23], this compound displayed a Replicate_2 of 2.226.

As for `C[N+](C)(C)CCOC(=O)CCC(=O)OCC[N+](C)(C)C` [Succinylcholine chloride], the inhibition at 5 µM by setting is: under setting [25], 1.08%; under setting [26], 1.05%; under setting [27], 1.11%.

`C#CC(N)CCC(=O)O` (stereo not drawn) [gamma-Acetylinic GABA] came in with a mean under setting [7] of 2.242. For the same compound, under setting [8], the Replicate_1 was 2.252. This compound also returned a Replicate_2 under setting [9] of 2.232.

In the case of `C1CCc2nnnn2CC1` [Pentylenetetrazole], the inhibition at 5 µM was determined as 0.452% under setting [4] and 2.75% under setting [5]. The “mean (LOPAC_screen_w_protease)” value under setting [6] is given as 1.601.

`CCCCN1CCC(n2c(=O)[nH]c3ccccc32)CC1.O=C(O)C(=O)O` [NS 521 oxalate] registered a mean under setting [21] of 3.504. Under setting [22], this compound displayed a Replicate_1 of 2.6467. Further, the Replicate_2 under setting [23] was 4.361.
